Peptide text beside a SMILES is read from it.
What follows are molecules tested against T1, human GIP R (Homo sapiens, UniProt P48546) (assay: Human GIP receptor (GIP-R) activity assay, cAMP induction (AlphaScreen) in HEK293 cells). Conditions: not given.
T1 construct: expressed in transfected cells
T1 sequence (P48546 22-466): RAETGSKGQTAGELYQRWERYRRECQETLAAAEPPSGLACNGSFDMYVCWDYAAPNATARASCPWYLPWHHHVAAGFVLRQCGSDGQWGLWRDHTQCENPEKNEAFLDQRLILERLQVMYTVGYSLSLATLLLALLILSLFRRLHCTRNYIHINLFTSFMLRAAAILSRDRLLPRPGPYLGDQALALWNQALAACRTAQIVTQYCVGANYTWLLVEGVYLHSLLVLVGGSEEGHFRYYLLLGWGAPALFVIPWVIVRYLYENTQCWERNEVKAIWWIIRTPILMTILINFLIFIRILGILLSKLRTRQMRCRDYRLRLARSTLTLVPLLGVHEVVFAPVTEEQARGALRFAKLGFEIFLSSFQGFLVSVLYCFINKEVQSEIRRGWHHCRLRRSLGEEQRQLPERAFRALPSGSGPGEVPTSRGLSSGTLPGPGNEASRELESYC
Assay type: cell-based

SMILES	EC50
CC(C)C[C@H](NC(=O)[C@H](C)NC(=O)[C@H](CCCCN)NC(=O)[C@H](CO)NC(=O)[C@H](Cc1ccc(O)cc1)NC(=O)[C@H](CC(=O)O)NC(=O)[C@H](CO)NC(=O)[C@@H](NC(=O)[C@H](Cc1ccccc1)NC(=O)[C@@H](NC(=O)CNC(=O)[C@H](CCC(N)=O)NC(=O)C(C)(C)NC(=O)[C@@H](N)Cc1ccc(O)cc1)[C@@H](C)O)[C@@H](C)O)C(=O)N[C@@H](CC(=O)O)C(=O)N[C@@H](CO)C(=O)N[C@@H](CCCCN)C(=O)N[C@@H](C)C(=O)N[C@@H](C)C(=O)N[C@@H](Cc1c[nH]cn1)C(=O)N[C@@H](CC(=O)O)C(=O)N[C@@H](Cc1ccccc1)C(=O)N[C@H](C(=O)N[C@@H](CCC(=O)O)C(=O)N[C@@H](Cc1c[nH]c2ccccc12)C(=O)N[C@@H](CC(C)C)C(=O)N[C@@H](CC(C)C)C(=O)N[C@@H](CO)C(=O)N[C@@H](C)C(N)=O)C(C)C [Compound 7] (HELM PEPTIDE1{Y.[Aib].Q.G.T.F.T.S.D.Y.S.K.A.L.D.S.K.A.A.H.D.F.V.E.W.L.L.S.A.[am]}$$$$V2.0)	0.5 nM
CC[C@H](C)[C@H](NC(=O)[C@H](CO)NC(=O)[C@H](Cc1ccc(O)cc1)NC(=O)[C@H](CC(=O)O)NC(=O)[C@H](CO)NC(=O)[C@@H](NC(=O)[C@H](Cc1ccccc1)NC(=O)[C@@H](NC(=O)CNC(=O)[C@H](CCC(N)=O)NC(=O)C(C)(C)NC(=O)[C@@H](N)Cc1ccc(O)cc1)[C@@H](C)O)[C@@H](C)O)C(=O)N[C@@H](Cc1ccc(O)cc1)C(=O)N[C@@H](CC(C)C)C(=O)N[C@@H](CC(=O)O)C(=O)N[C@@H](CO)C(=O)N[C@@H](CCCCN)C(=O)N[C@@H](C)C(=O)N[C@@H](C)C(=O)N[C@@H](Cc1c[nH]cn1)C(=O)N[C@@H](CC(=O)O)C(=O)N[C@@H](Cc1ccccc1)C(=O)N[C@H](C(=O)N[C@@H](CC(N)=O)C(=O)N[C@@H](Cc1c[nH]c2ccccc12)C(=O)N[C@@H](CC(C)C)C(=O)N[C@@H](CC(C)C)C(=O)N[C@@H](CO)C(=O)N[C@@H](C)C(N)=O)C(C)C [Compound 11] (HELM PEPTIDE1{Y.[Aib].Q.G.T.F.T.S.D.Y.S.I.Y.L.D.S.K.A.A.H.D.F.V.N.W.L.L.S.A.[am]}$$$$V2.0)	0.25 nM
CC[C@H](C)[C@H](NC(=O)[C@H](CO)NC(=O)[C@H](Cc1ccc(O)cc1)NC(=O)[C@H](CC(=O)O)NC(=O)[C@H](CO)NC(=O)[C@@H](NC(=O)[C@H](Cc1ccccc1)NC(=O)[C@@H](NC(=O)CNC(=O)[C@H](CCC(N)=O)NC(=O)C(C)(C)NC(=O)[C@@H](N)Cc1ccc(O)cc1)[C@@H](C)O)[C@@H](C)O)C(=O)N[C@@H](Cc1ccc(O)cc1)C(=O)N[C@@H](CC(C)C)C(=O)N[C@@H](CC(=O)O)C(=O)N[C@@H](CO)C(=O)N[C@@H](CCCCN)C(=O)N[C@@H](C)C(=O)N[C@@H](C)C(=O)N[C@@H](CCCCN)C(=O)N[C@@H](CC(=O)O)C(=O)N[C@@H](Cc1ccccc1)C(=O)N[C@H](C(=O)N[C@@H](CCC(=O)O)C(=O)N[C@@H](Cc1c[nH]c2ccccc12)C(=O)N[C@@H](CC(C)C)C(=O)N[C@@H](CC(C)C)C(=O)N[C@@H](CO)C(=O)N[C@@H](C)C(N)=O)C(C)C [Compound 10] (HELM PEPTIDE1{Y.[Aib].Q.G.T.F.T.S.D.Y.S.I.Y.L.D.S.K.A.A.K.D.F.V.E.W.L.L.S.A.[am]}$$$$V2.0)	0.2 nM
CC(C)C[C@H](NC(=O)[C@H](CC(C)C)NC(=O)[C@H](Cc1c[nH]c2ccccc12)NC(=O)[C@H](CCC(=O)O)NC(=O)[C@@H](NC(=O)[C@H](Cc1ccccc1)NC(=O)[C@H](CC(=O)O)NC(=O)[C@H](CCCNC(=N)N)NC(=O)[C@H](C)NC(=O)[C@H](C)NC(=O)[C@H](CCCCN)NC(=O)[C@H](CO)NC(=O)[C@H](CC(=O)O)NC(=O)[C@H](CC(C)C)NC(=O)[C@H](Cc1ccc(O)cc1)NC(=O)[C@H](CCCCN)NC(=O)[C@H](CO)NC(=O)[C@H](Cc1ccc(O)cc1)NC(=O)[C@H](CC(=O)O)NC(=O)[C@H](CO)NC(=O)[C@@H](NC(=O)[C@H](Cc1ccccc1)NC(=O)[C@@H](NC(=O)CNC(=O)[C@H](CCC(N)=O)NC(=O)C(C)(C)NC(=O)[C@@H](N)Cc1ccc(O)cc1)[C@@H](C)O)[C@@H](C)O)C(C)C)C(=O)N[C@@H](CO)C(=O)N[C@@H](C)C(N)=O [Compound 6] (HELM PEPTIDE1{Y.[Aib].Q.G.T.F.T.S.D.Y.S.K.Y.L.D.S.K.A.A.R.D.F.V.E.W.L.L.S.A.[am]}$$$$V2.0)	0.32 nM

Same assay, conditions: Table 2b (most comprehensive data); average EC50; cAMP in HEK293 cells expressing human GIP R; read-out: GIP R (EC50 in nM)

SMILES	EC50
CCCCCCCCCCCCCCCC(=O)N[C@@H](CCC(=O)NCCCC[C@H](NC(=O)[C@H](CO)NC(=O)[C@H](Cc1ccc(O)cc1)NC(=O)[C@H](CC(=O)O)NC(=O)[C@H](CO)NC(=O)[C@@H](NC(=O)[C@H](Cc1ccccc1)NC(=O)[C@@H](NC(=O)CNC(=O)[C@H](CCC(N)=O)NC(=O)C(C)(C)NC(=O)[C@@H](N)Cc1ccc(O)cc1)[C@@H](C)O)[C@@H](C)O)C(=O)N[C@@H](Cc1ccc(O)cc1)C(=O)N[C@@H](CC(C)C)C(=O)N[C@@H](CCC(=O)O)C(=O)N[C@@H](CCCCN)C(=O)N[C@@H](CCCCN)C(=O)N[C@@H](C)C(=O)N[C@@H](C)C(=O)N[C@@H](CCCCN)C(=O)N[C@@H](CCC(=O)O)C(=O)N[C@@H](Cc1ccccc1)C(=O)N[C@H](C(=O)N[C@@H](CCC(=O)O)C(=O)N[C@@H](Cc1c[nH]c2ccccc12)C(=O)N[C@@H](CC(C)C)C(=O)N[C@@H](CC(C)C)C(=O)N[C@@H](CO)C(=O)N[C@@H](C)C(N)=O)C(C)C)C(=O)O [Compound 25] (HELM PEPTIDE1{Y.[Aib].Q.G.T.F.T.S.D.Y.S.K.Y.L.E.K.K.A.A.K.E.F.V.E.W.L.L.S.A.[am]}|PEPTIDE2{[CCCCCCCCCCCCCCCC(=O)[*:2]].[gGlu]}$PEPTIDE1,PEPTIDE2,12:R3-2:R2$$$V2.0)	0.19 nM
CCCCCCCCCCCCCCCC(=O)N[C@@H](CCC(=O)NCCCC[C@H](NC(=O)[C@H](CO)NC(=O)[C@H](CC(=O)O)NC(=O)[C@H](CC(C)C)NC(=O)[C@H](Cc1ccc(O)cc1)NC(=O)[C@@H](NC(=O)[C@H](CO)NC(=O)[C@H](Cc1ccc(O)cc1)NC(=O)[C@H](CC(=O)O)NC(=O)[C@H](CO)NC(=O)[C@@H](NC(=O)[C@H](Cc1ccccc1)NC(=O)[C@@H](NC(=O)CNC(=O)[C@H](CCC(N)=O)NC(=O)C(C)(C)NC(=O)[C@@H](N)Cc1ccc(O)cc1)[C@@H](C)O)[C@@H](C)O)[C@@H](C)CC)C(=O)N[C@@H](C)C(=O)N[C@@H](C)C(=O)N[C@@H](Cc1c[nH]cn1)C(=O)N[C@@H](CC(=O)O)C(=O)N[C@@H](Cc1ccccc1)C(=O)N[C@H](C(=O)N[C@@H](CCC(=O)O)C(=O)N[C@@H](Cc1c[nH]c2ccccc12)C(=O)N[C@@H](CC(C)C)C(=O)N[C@@H](CC(C)C)C(=O)N[C@@H](CO)C(=O)N[C@@H](C)C(=O)NCC(=O)N1CCC[C@H]1C(=O)N[C@@H](CO)C(=O)N[C@@H](CO)C(=O)NCC(=O)N[C@@H](C)C(=O)N1CCC[C@H]1C(=O)N1CCC[C@H]1C(=O)N1CCC[C@H]1C(=O)N[C@@H](CO)C(N)=O)C(C)C)C(=O)O [Compound 29] (HELM PEPTIDE1{Y.[Aib].Q.G.T.F.T.S.D.Y.S.I.Y.L.D.S.K.A.A.H.D.F.V.E.W.L.L.S.A.G.P.S.S.G.A.P.P.P.S.[am]}|PEPTIDE2{[CCCCCCCCCCCCCCCC(=O)[*:2]].[gGlu]}$PEPTIDE1,PEPTIDE2,17:R3-2:R2$$$V2.0)	0.064 nM
CCCCCCCCCCCCCCCC(=O)N[C@@H](CCC(=O)NCCCC[C@H](NC(=O)[C@H](CO)NC(=O)[C@H](CC(=O)O)NC(=O)[C@H](CC(C)C)NC(=O)[C@H](Cc1ccc(O)cc1)NC(=O)[C@@H](NC(=O)[C@H](CO)NC(=O)[C@H](Cc1ccc(O)cc1)NC(=O)[C@H](CC(=O)O)NC(=O)[C@H](CO)NC(=O)[C@@H](NC(=O)[C@H](Cc1ccccc1)NC(=O)[C@@H](NC(=O)CNC(=O)[C@H](CCC(N)=O)NC(=O)C(C)(C)NC(=O)[C@@H](N)Cc1ccc(O)cc1)[C@@H](C)O)[C@@H](C)O)[C@@H](C)CC)C(=O)N[C@@H](C)C(=O)N[C@@H](C)C(=O)N[C@@H](Cc1c[nH]cn1)C(=O)N[C@@H](CC(=O)O)C(=O)N[C@@H](Cc1ccccc1)C(=O)N[C@H](C(=O)N[C@@H](CCC(=O)O)C(=O)N[C@@H](Cc1c[nH]c2ccccc12)C(=O)N[C@@H](CC(C)C)C(=O)N[C@@H](CC(C)C)C(=O)N[C@@H](CCCNC(=N)N)C(=O)N[C@@H](C)C(N)=O)C(C)C)C(=O)O [Compound 27] (HELM PEPTIDE1{Y.[Aib].Q.G.T.F.T.S.D.Y.S.I.Y.L.D.S.K.A.A.H.D.F.V.E.W.L.L.R.A.[am]}|PEPTIDE2{[CCCCCCCCCCCCCCCC(=O)[*:2]].[gGlu]}$PEPTIDE1,PEPTIDE2,17:R3-2:R2$$$V2.0)	0.099 nM
